Data taken from ChEMBL document CHEMBL1144311, “Synthesis of argentatin A derivatives as growth inhibitors of human cancer cell lines in vitro” (Bioorg Med Chem Lett, 2005).

Experiments:
Format in all cases: functional, cell-based
PC-3 [1] = assay: Inhibitory concentration towards human prostatic adenocarcinoma cell line (PC-3) was determined
U-251 = assay: Inhibitory concentration towards human central nervous system glioblastoma cell line (U251) was determined
K562 = assay: Inhibitory concentration towards chronic myelogenous leukemic cell line (K562) was determined; details: Homo sapiens
HCT-15 = assay: Inhibitory concentration towards human colon adenocarcinoma cell line (HCT-15) was determined
PC-3 [2] = assay: Inhibitory concentration against human prostatic adenocarcinoma cell line (PC-3) was determined

Row | Structure (SMILES) | IC50 (PC-3 [1]) | IC50 (U-251) | IC50 (K562) | IC50 (HCT-15) | IC50 (PC-3 [2])
1 | CC1(C)c2oncc2C[C@]23C[C@]24CC[C@]2(C)C([C@]5(C)CC[C@H](C(C)(C)O)O5)[C@@H](O)C[C@@]2(C)C4CCC13 (stereo not given in full) | 13 µM | 11.3 µM | 11 µM | 10.2 µM | –
2 | CC1(C)C(=O)CC[C@]23C[C@]24CC[C@]2(C)C([C@]5(C)CC[C@H](C(C)(C)O)O5)[C@@H](O)C[C@@]2(C)C4CCC13 (stereo not given in full) | 20.2 µM | 27.3 µM | 38.6 µM | 31.7 µM | –
3 | CC1(C)C(=O)[C@H](Br)C[C@]23C[C@]24CC[C@]2(C)C([C@]5(C)CC[C@H](C(C)(C)O)O5)[C@@H](O)C[C@@]2(C)C4CCC13 (stereo not given in full) | – | 13.9 µM | 4.34 µM | 3.23 µM | 11.1 µM
4 | CC1(C)C(=O)C=C[C@]23C[C@]24CC[C@]2(C)C([C@]5(C)CC[C@H](C(C)(C)O)O5)[C@@H](O)C[C@@]2(C)C4CCC13 (stereo not given in full) | 15.3 µM | 18.9 µM | 16.8 µM | 16.7 µM | –
5 | CC(=O)OC1C[C@@]2(C)C3CCC4C(C)(C)C(=O)C=C[C@@]45C[C@@]35CC[C@]2(C)C1[C@]1(C)CC[C@H](C(C)(C)OC(C)=O)O1 (stereo not given in full) | 13.9 µM | 58.4 µM | > 100 µM | > 100 µM | –
6 | CC(=O)O[C@H]1C[C@@]2(C)C3CCC4C(C)(C)/C(=N\O)CC[C@@]45C[C@@]35CC[C@]2(C)C1[C@]1(C)CC[C@H](C(C)(C)OC(C)=O)O1 (stereo not given in full) | 12.6 µM | 21.4 µM | 15.2 µM | 28.9 µM | –
7 | CC1(C)/C(=N/O)C=C[C@]23C[C@]24CC[C@]2(C)C([C@]5(C)CC[C@H](C(C)(C)O)O5)[C@@H](O)C[C@@]2(C)C4CCC13 (stereo not given in full) | 46.9 µM | 26.8 µM | 44.4 µM | 35.8 µM | –
8 | CC(=O)O[C@H]1C[C@@]2(C)C3CCC4C(C)(C)C(=O)CC[C@@]45C[C@@]35CC[C@]2(C)C1[C@]1(C)CC[C@H](C(C)(C)OC(C)=O)O1 (stereo not given in full) | 22.7 µM | 30.5 µM | 68.4 µM | 40.7 µM | –
9 | CC1(C)C(=O)CC[C@]23C[C@]24CC[C@]2(C)C([C@]5(C)CCC(=O)O5)C(=O)C[C@@]2(C)C4CCC13 (stereo not given in full) | > 100 µM | > 100 µM | > 100 µM | > 100 µM | –
10 | CC1(C)C(O)=C(C=O)C[C@]23C[C@]24CC[C@]2(C)C([C@]5(C)CC[C@H](C(C)(C)O)O5)C(O)C[C@@]2(C)C4CCC13 (stereo not given in full) | 5.69 µM | 5.88 µM | 14.4 µM | 9.82 µM | –
